Assays:
[1] = target: recombinant BACE1 protein (Homo sapiens, UniProt P56817); experiment: Biochemical FRET based assay; conditions: recombinant BACE1 1 μg/ml, 120 minutes at room temperature, pH 5.0; for IC50: read-out: Biochemical FRET based assay pIC50 (converted)
Method in brief: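 Recombinant BACE1 (1 μg/ml final) was incubated 120 minutes at room temperature with […] Mca/Dnp-labelled 13-mer APP Swedish-mutant peptide in 40 mM citrate pH 5.0, 0.04% PEG, 4% DMSO, with or without compound. Cleavage was measured as fluorescence (ex 320/em 405 nm), given as RFU difference between T120 and T0.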

[2] = system: Abeta 1-42; experiment: Cellular αLisa assay in SKNBE2 cells, Abeta 1-42; type: cell-based, human; conditions: incubated for 18 hours; for IC50: Homo sapiens, SKNBE2, 18 h, read-out: Cellular αLisa assay in SKNBE2 cells Abeta 42 pIC50 (converted)
Method in brief: (§1)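 Human neuroblastoma SKNBE2 cells expressing wild-type hAPP695 were incubated with compound for 18 hours. Secreted Abeta total and Abeta 1-42 in medium were quantified by sandwich αLisa: biotinylated AbN/25 on streptavidin donor beads with Ab4G8 (total) or cAb42/26 (1-42) acceptor beads. Light emission read after 1 hour (ex 650 nm, em 615 nm).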

[3] = system: Abeta total; experiment: Cellular αLisa assay in SKNBE2 cells, Abeta total; type: cell-based, human; conditions: incubated for 18 hours; for IC50: Homo sapiens, SKNBE2, 18 h, read-out: Cellular αLisa assay in SKNBE2 cells Abetatotal pIC50 (converted)
Method in brief: as §1

[4] = system: Aβtotal; experiment: Demonstration of in vivo efficacy, brain Aβtotal lowering (ELISA); conditions: mouse brain
Text: (§2) To determine whether acute administration of an Aβ42 peptide lowering agent would reduce Aβ peptide levels in vivo, non-transgenic rodents, e.g. mice or rats were used. Animals treated with the Aβ peptide lowering agent were examined and compared to those untreated or treated with vehicle and brain levels of soluble Aβ42 and total Aβ were quantitated by standard techniques, for example, using ELISA.
(§3) A typical protocol for measuring Aβ42 lowering in vivo is shown but it is only one of many variations that could be used to optimize the levels of detectable Aβ. For example, Aβ peptide lowering compounds were formulated in 20% hydroxypropyl 3 cyclodextrin. The Aβ peptide lowering agents were administered as a single oral dose (p.o.) or a single subcutaneous dose (s.c.) to overnight fasted animals. After a certain time, usually 2 or 4 h (as indicated in Table 19), the animals were sacrificed and Aβ42 levels were analysed.
(§4) Blood was collected by decapitation and exsanguinations in EDTA-treated collection tubes. Blood was centrifuged at 1900 g for 10 minutes (min) at 4° C. and the plasma recovered and flash frozen for later analysis. The brain was removed from the cranium and hindbrain. The cerebellum was removed and the left and right hemisphere were separated. The left hemisphere was stored at −18° C. for quantitative analysis of test compound levels. The right hemisphere was rinsed with phosphate-buffered saline (PBS) buffer and immediately frozen on dry ice and stored at −80° C. until homogenization for biochemical assays.
(§5) Mouse brains from non-transgenic animals were resuspended in 8 volumes of 0.4% DEA (diethylamine)/50 mM NaCl containing protease inhibitors (Roche-11873580001 or 04693159001) per gram of tissue, e.g. for 0.158 g brain, add 1.264 ml of 0.4% DEA. All samples were homogenized in the FastPrep-24 system (MP Biomedicals) using lysing matrix D (MPBio #6913-100) at 6 m/s for 20 seconds. Homogenates were centrifuged at 221.300×g for 50 min. The resulting high speed supernatants were then transferred to fresh eppendorf tubes. Nine parts of supernatant were neutralized with 1 part 0.5 M Tris-HCl pH 6.8 and used to quantify Aβtotal and Aβ42.
(§6) To quantify the amount of Aβtotal and Aβ42 in the soluble fraction of the brain homogenates, Enzyme-Linked-Immunosorbent-Assays were used. Briefly, the standards (a dilution of synthetic Aβ1-40 and Aβ1-42, Bachem) were prepared in 1.5 ml Eppendorf tube in Ultraculture, with final concentrations ranging from 10000 to 0.3 pg/ml. The samples and standards were co-incubated with HRPO-labelled N-terminal antibody for Aβ42 detection and with the biotinylated mid-domain antibody 4G8 for Aβtotal detection. […] The plate was allowed to incubate overnight at 4° C. in order to allow formation of the antibody-amyloid complex. Following this incubation and subsequent wash steps the ELISA for Aβ42 quantification was finished by addition of Quanta Blu fluorogenic peroxidase substrate according to the manufacturer's instructions (Pierce Corp., Rockford, Ill.). A reading was performed after 10 to 15 min (excitation 320 nm/emission 420 nm).
For Aβtotal detection, a Streptavidine-Peroxidase-Conjugate was added, followed 60 min later by an additional wash step and addition of Quanta Blu fluorogenic peroxidase substrate according to the manufacturer's instructions (Pierce Corp., Rockford, Ill.). A reading was performed after 10 to 15 min (excitation 320 nm/emission 420 nm).

[5] = system: Aβ42; experiment: Demonstration of in vivo efficacy, brain Aβ42 lowering (ELISA); conditions: mouse brain
Text: as §2, §3, §4, §5, §6

[6] = target: T1, P-gp (Homo sapiens, UniProt P08183); experiment: Transepithelial transport of test compounds through LLC-MDR1 monolayers; type: in vitro ADME; conditions: pig, LLC-PK1
T1 construct: expressed in transfected cells; host or cells: LLC-PK1 cells stably transduced with MDR1 (LLC-MDR1)
Experimental: Brief Assay Description for the Measurement of Transepithelial Transport of Test Compounds Through LLC-MDR1 Monolayers
The purpose of this assay was to assess both the in vitro passive permeability of test compounds and their ability to be transported substrates of P-gp using LLC-PK1 cells stably transduced with MDR1 in a trans-well system. The positive control for transport was ^3H-digoxin (30 nM) and the positive control inhibitor was GF120918 (5 μM). The marker compound for low permeability was ^14C-Mannitol (1 μM). The test compound concentration was 1 μM.
The integrity of the cellular monolayer was assessed in each incubation well through the inclusion of the fluorescent, low permeability marker compound, Fluorescein.
In detail, LLC-MDR1 cells were seeded on 24-well cell culture inserts (Millicell®-PCF, 0.4 μm, 13 mm diameter, 0.7 cm^2) at 400,000 cells/cm^2. Cell culture medium consisted of Medium 199 supplemented with 10% Foetal Bovine Serum (FBS) and 100 U/ml Penicillin/streptomycin and was replaced the day after seeding and the day before the experiment. The transport experiment was performed 5 days after seeding. On the day of the experiment, solutions of the test compounds were applied to the apical or basolateral side of the monolayers to assess transport in the A to B and B to A directions, respectively. The medium used in the assay was (OPTI-MEM (1×) (GIBCO) with 1 w/v % Bovine Serum Albumin. Inserts were incubated at 37° C. in a humidified incubator containing 5% CO2. Samples from the acceptor and donor compartments were collected after an incubation time of 120 min, to assess the permeability and to allow estimation of the test compound recovery during the experiment, respectively. Transport experiments were performed in triplicate. Absolute test compound concentrations were measured using LC-MS/MS and quantified via a calibration curve.

recombinant BACE1 protein, sequence (P56817 46-501): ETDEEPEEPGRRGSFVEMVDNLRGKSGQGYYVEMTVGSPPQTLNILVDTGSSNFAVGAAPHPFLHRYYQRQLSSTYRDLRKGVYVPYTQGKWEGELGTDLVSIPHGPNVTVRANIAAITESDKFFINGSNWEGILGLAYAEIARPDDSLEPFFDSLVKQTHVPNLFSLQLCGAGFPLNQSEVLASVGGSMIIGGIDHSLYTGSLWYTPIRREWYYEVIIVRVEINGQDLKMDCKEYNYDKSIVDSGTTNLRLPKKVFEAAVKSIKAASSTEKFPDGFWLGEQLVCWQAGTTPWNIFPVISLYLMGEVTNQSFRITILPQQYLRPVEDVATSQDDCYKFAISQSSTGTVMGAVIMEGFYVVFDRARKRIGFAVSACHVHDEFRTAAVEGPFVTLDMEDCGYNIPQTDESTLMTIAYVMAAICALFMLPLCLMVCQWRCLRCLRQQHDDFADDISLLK
T1 sequence (P08183 whole entry): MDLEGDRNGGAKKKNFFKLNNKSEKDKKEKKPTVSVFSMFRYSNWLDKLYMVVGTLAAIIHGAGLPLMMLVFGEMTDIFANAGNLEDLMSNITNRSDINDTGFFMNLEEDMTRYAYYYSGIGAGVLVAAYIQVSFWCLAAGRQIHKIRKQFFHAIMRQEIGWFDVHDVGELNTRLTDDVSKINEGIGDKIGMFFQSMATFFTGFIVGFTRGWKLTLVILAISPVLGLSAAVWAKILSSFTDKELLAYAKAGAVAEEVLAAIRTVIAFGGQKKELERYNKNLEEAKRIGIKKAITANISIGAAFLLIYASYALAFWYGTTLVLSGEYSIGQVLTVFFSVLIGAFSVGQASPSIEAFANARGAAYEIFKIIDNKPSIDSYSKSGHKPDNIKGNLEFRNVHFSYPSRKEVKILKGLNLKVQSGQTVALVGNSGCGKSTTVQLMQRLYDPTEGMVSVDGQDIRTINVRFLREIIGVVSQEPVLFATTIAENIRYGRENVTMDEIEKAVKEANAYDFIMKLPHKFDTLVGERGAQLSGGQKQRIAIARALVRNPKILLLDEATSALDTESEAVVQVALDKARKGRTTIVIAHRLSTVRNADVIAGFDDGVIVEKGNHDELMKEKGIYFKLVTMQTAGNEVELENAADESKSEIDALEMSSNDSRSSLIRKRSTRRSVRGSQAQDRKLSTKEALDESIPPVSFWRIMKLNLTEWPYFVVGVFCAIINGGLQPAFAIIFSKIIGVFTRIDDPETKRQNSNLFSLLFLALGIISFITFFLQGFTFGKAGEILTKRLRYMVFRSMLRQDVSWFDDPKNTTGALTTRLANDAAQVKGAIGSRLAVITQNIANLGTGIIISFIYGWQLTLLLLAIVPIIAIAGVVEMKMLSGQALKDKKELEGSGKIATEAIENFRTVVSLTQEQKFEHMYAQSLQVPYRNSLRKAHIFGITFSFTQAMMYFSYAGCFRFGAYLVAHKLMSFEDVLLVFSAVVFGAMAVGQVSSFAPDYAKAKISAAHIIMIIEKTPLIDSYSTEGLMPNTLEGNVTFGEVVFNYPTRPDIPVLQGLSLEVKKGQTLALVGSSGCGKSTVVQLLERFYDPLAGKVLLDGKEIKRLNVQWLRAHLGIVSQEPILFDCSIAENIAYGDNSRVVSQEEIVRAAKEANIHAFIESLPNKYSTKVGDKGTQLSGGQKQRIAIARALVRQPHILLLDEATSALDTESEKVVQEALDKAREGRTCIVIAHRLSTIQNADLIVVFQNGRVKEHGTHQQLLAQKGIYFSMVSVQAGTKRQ

SMILES | IC50 [1] [nM] | IC50 [2] [nM] | IC50 [3] [nM] | Aβtotal (% Ctrl)_Mean ([4]; 30 mpk, s.c., 4 h) [% Ctrl] | Aβ42 (% Ctrl)_Mean ([5]; 30 mpk, s.c., 4 h) [% Ctrl] | melting point [°C] | Cellular αLisa assay in SKNBE2 cells Abeta 42 pIC50 [2] | Cellular αLisa assay in SKNBE2 cells Abetatotal pIC50 [3] | Aβtotal (% Ctrl)_Mean ([4]; 30 mpk, s.c., 2 h) [% Ctrl] | Aβ42 (% Ctrl)_Mean ([5]; 30 mpk, s.c., 2 h) [% Ctrl] | also measured
CC1(c2cccc(NC(=O)c3ccc(Cl)cn3)c2)COC(F)(C(F)(F)F)C(N)=N1 (racemic) [Compound 9, rac-N-{3-[5-amino-6-fluoro-3-methyl-6-(trifluoromethyl)-3,6-dihydro-2H-1,4-oxazin-3-yl]phenyl}-5-chloropyridine-2-carboxamide] | 3470 | > 10000 | 8510 | 101 | 87 | 193.3 | – | – | – | – | –
COc1cncc(-c2cccc(C3(C)COCC(N)=N3)c2)c1 (single isomer, unassigned) [Compound 8] | 2040 | 214 | 178 | 98 | 92 | 79.5 | – | – | – | – | –
CC1(c2cccc(-c3cncnc3)c2)N=C(N)COC1(F)C(F)(F)F (single isomer, unassigned) [Compound 117] | 437 | – | – | – | – | – | 6.59 | 6.55 | 86 | 95 | –
CC1(c2cc(NC(=O)c3ncc(Cl)cc3Cl)ccc2F)N=C(N)COC1F (single isomer, unassigned) [Compound 126] | 36.3 | – | – | 32 | 27 | 94.6 | 8.06 | 8.09 | – | – | Aβtotal (% Ctrl)_Mean ([4]; 30 mpk, p.o., 4 h): 31 % Ctrl; Aβ42 (% Ctrl)_Mean ([5]; 30 mpk, p.o., 4 h): 26 % Ctrl
CC1(c2cccc(-c3cncc(C#N)c3)c2)N=C(N)COC1C(F)(F)F (single isomer, unassigned) [Compound 204] | 363 | – | – | 103 | 113 | – | 7.05 | 7.06 | – | – | –
C[C@@]1(c2cccc(-c3cc(Cl)cc(Cl)c3)c2)COCC(N)=N1 [Compound 52] | – | – | – | – | – | – | 6.68 | 6.66 | 114 | 68 | Biochemical FRET based assay pIC50 [1]: 6.06
C[C@]1(c2cc(NC(=O)c3ncc(Cl)cc3Cl)ccc2F)N=C(N)CO[C@H]1C(F)(F)F [Compound 167] | 34.7 | 7.59 | 7.59 | – | – | 214.23 | – | – | – | – | Aβtotal (% Ctrl)_Mean ([4]; 30 mpk, p.o., 2 h): 78 % Ctrl; Aβ42 (% Ctrl)_Mean ([5]; 30 mpk, p.o., 2 h): 95 % Ctrl
N#Cc1ccc(C(=O)Nc2cccc([C@@]3(C4CC4)N=C(N)CO[C@@]3(F)C(F)(F)F)c2)nc1 [Compound 199, (2S,3R)—N-{3-[5-amino-3-cyclopropyl-2-fluoro-2-(trifluoromethyl)-3,6-dihydro-2H-1,4-oxazin-3-yl]phenyl}-5-cyanopyridine-2-carboxamide] | 14.8 | 16.6 | 17 | – | – | 196.12 | – | – | 45 | 64 | –
C[C@]1(c2cc(NC(=O)c3ncc(C#N)cc3Cl)ccc2F)N=C(N)CO[C@@H]1F [Compound 209] | 39.8 | 15.5 | 13.8 | – | – | – | – | – | – | – | Aβtotal (% Ctrl)_Mean ([4]; 10 mpk, p.o., 4 h): 14 % Ctrl; Aβ42 (% Ctrl)_Mean ([5]; 10 mpk, p.o., 4 h): 6 % Ctrl
COc1cnc(C(=O)Nc2ccc(F)c([C@@]3(C4CC4)N=C(N)CO[C@@H]3F)c2)cn1 [Compound 216] | – | – | 631 | – | – | – | – | – | – | – | Aβtotal (% Ctrl)_Mean ([4]; 30 mpk, p.o., 4 h): 39 % Ctrl; Aβ42 (% Ctrl)_Mean ([5]; 30 mpk, p.o., 4 h): 45 % Ctrl; Papp A→B at 120 min, 1 μM ([6]; read-out: A to B (Apparent Permeability, Papp)): 12 ×10⁻⁶ cm/s; Papp B→A at 120 min, 1 μM ([6]; read-out: B to A (Apparent Permeability, Papp)): 12 ×10⁻⁶ cm/s
N#Cc1cnc(C(=O)Nc2ccc(F)c([C@@]3(C4CC4)N=C(N)CO[C@@H]3F)c2)c(Cl)c1 [Compound 218] | 126 | 851 | 832 | – | – | – | – | – | 90 | 99 | –
NC1=N[C@@](c2cc(NC(=O)c3ncc(Cl)cc3F)ccc2F)(C2CC2)[C@@H](F)OC1 [Compound 219] | 93.3 | 309 | 282 | – | – | – | – | – | 86 | 95 | –
COc1cnc(C(=O)Nc2cccc(C3(C4CC4)N=C(N)COC3C(F)(F)F)c2)cn1 (stereo not drawn) [Compound 228] | – | – | – | – | – | – | 7.31 | 7.35 | – | – | Biochemical FRET based assay pIC50 [1]: 6.67; Aβtotal (% Ctrl)_Mean ([4]; 30 mpk, p.o., 2 h): 79 % Ctrl; Aβ42 (% Ctrl)_Mean ([5]; 30 mpk, p.o., 2 h): 99 % Ctrl
